Measurements taken from patent publication US12702657B2, “Treatment and prevention of dengue disease” (Janssen Pharmaceuticals, Inc., priority 2019, dated 2026).

System: DENV-2 Rega lab strain
Test: Lethal DENV challenge study (survival study) in AG129 mice with 4G2 antibody-dependent enhancement
Format: in vivo
Conditions: monitored max. 25 days, 10^6 PFU
Description: In the lethal DENV challenge study (or survival study), antibody-dependent-enhancement (ADE) induced dengue disease is imitated by injecting AG129 mice (n=10 per group) i.p. with Anti-Flavivirus Group Antigen Antibody, clone D1-4G2-4-15 (‘4G2’; Millipore), one day prior to challenge with DENV-2 Rega lab strain (1×10^6 PFU, i.p.). Animals were treated by administering compound (b) by oral gavage with a first administration at one hour prior to infection. The treatment continued for five consecutive days with one administration of compound (b) every 12 hours (twice daily or b.i.d.). (FIG. 15X).
The mice were divided in several groups (n=8/group for the viremia study and n=10/group for the survival study) representing the following treatment regimens: • (i) vehicle, 80%/20% PEG400/H2O • (ii) compound (b): 30 mg/kg/dose b.i.d. • (iii) compound (b): 10 mg/kg/dose b.i.d. • (iv) compound (b): 3 mg/kg/dose b.i.d. • (v) compound (b): 1 mg/kg/dose b.i.d.
Next, the impact of compound (b) was assessed on virus-induced disease and mortality when dosed (orally, b.i.d.) for just 5 consecutive days starting at the day of infection (survival study). Animals were monitored for a maximum period of 25 days. All but one (19 of 20) vehicle-treated mice had to be euthanized. At a dose of 30 mg/kg, 90% of the mice survived the viral challenge and at doses of 10, 3 and 1 mg/kg, the survival rate was respectively 80%, 85% and 75% (FIG. 15Z).

Compound: COc1cc(NC(C(=O)N2CCc3ccc(OC(F)(F)F)cc32)c2ccc(Cl)cc2)cc(OCCCC(=O)O)c1 (stereo not shown) [compound (b)]
- survival rate (1 mg/kg b.i.d. orally for 5 days): 75%
- survival rate (3 mg/kg b.i.d. orally for 5 days): 85%
- survival rate (10 mg/kg b.i.d. orally for 5 days): 80%
- survival rate (30 mg/kg b.i.d. orally for 5 days): 90%
